Assay results as given in publication PMC11003484 (Journal of Enzyme Inhibition and Medicinal Chemistry, 2023).
Structures can show the parent of a compound that is named as a salt.

Assays:
HEV helicase [1] = target: T1, HEV helicase (Hepatitis E virus genotype 1, UniProt P33424); experiment: Double-stranded RNA unwinding activity / inhibition assay (fluorescence); type: biochemical; conditions: dsRNA unwinding, purified helicase, RT
T1 construct: The HEV helicase (735 bp) was amplified from the HEV (genotype 1; AF444002.1) cDNA clone; made in house; host or cells: E. coli BL21(DE3), pET28a; solubilised from inclusion bodies with NLS
T1 sequence (P33424 960-1204): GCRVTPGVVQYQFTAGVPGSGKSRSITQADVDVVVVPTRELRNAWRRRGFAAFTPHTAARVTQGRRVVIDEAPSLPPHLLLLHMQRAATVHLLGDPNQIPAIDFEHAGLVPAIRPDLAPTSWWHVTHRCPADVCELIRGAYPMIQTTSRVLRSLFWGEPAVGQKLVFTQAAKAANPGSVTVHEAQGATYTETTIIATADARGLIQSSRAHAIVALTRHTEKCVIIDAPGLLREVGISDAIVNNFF
Text: (§1) The HEV helicase (735 bp) was amplified from the HEV (genotype 1; accession no. AF444002.1) cDNA clone pSK-HEV-2[23]^,[25] using the forward and reverse primers sets (5′agcc|atatgggttgccgtgtgacc3′ and 5′gtgc|tcgagttaaaagaagttgttcac3′). Following standard laboratory procedures, the amplified gene was cloned in the pET28a vector between NdeI and Xho I restriction sites. The cloning was verified using colony PCR using Nde I and Xho I (New England BioLabs, Ipswich, MA) double digestion and DNA sequencing. The recombinant plasmid was further transformed to BL21(DE3) using the routine protocol for expressing HEV helicase. The transformed recombinant BL21 cells were expanded until the culture’s optical density (OD600 nm) reached 0.6 before being induced with 0.4 mM IPTG (Sigma Aldrich, St. Louis, MO) at 26 °C for 4 h. The protein solubilisation was carried out as described previously. The Immobilised Metal Affinity Chromatography (IMAC) was used to purify the solubilised protein, and the protein was eluted in a buffer containing 10 mM Tris–Cl (pH 8.0), (Sigma Aldrich), 100 mM NaCl (Sigma Aldrich), 250 mM imidazole, and 0.1% N-lauryl Sarcosine (NLS; Sigma Aldrich). Further, the buffer of purified protein was exchanged with 10 mM Tris–Cl (pH 8.0), 100 mM NaCl, and 0.08% NLS before proceeding with enzyme assays.
(§2) All the experiments were performed in triplicates, and the graphs were plotted using GraphPad Prism software (Boston, MA).

HEV helicase [2] = target: T1, HEV helicase; experiment: biochemical; type: biochemical
Text: as §1
The NTPase activity of the HEV helicase enzyme was performed using a colorimetric-based Malachite green test[27]. The assay followed the manufacturer’s instructions The malachite green assay was performed as per the manufacturer’s protocol (Sigma Aldrich) cat no MAK307-1KT. The assay operates on the phosphate release from the reaction between malachite green and molybdate (AM/MG reagent) as the basis for complexation. […] The absorbance was measured on plate reader and a standard curve was generated using known concentrations of phosphate ranging from 0 to 44 uM to correlate absorbance with released phosphate concentration. The absorbance was plotted on Y-axis against the phosphate concentration on X-axis, and a straight-line equation (Y = 0.02182 * X + 0.04158) was determined using linear regression in GraphPad Prism version 9.0 (Boston, MA). The graphs were plotted as a function of the concentration of phosphate released. The effects of pH, temperature, enzyme concentration, and substrate concentration on helicase enzyme activity were studied to optimise enzyme activity.
Based on their docking score, hydrogen bonds, and protein–ligand interaction, the five selected compounds from virtual screening were tested for their ability to suppress NTPase activity. The putative inhibitors’ concentrations ranged from 0 to 10 µM during the optimisation-focused inhibition tests on the purified protein’s NTPase activity. […] The working reagent was added after the reaction mixture had been incubated at RT for 10 min, and the absorbance was measured at 600 nm.
as §2

[3] = test system: HEV replication (ORF2 expression); experiment: microbe, parasite or virus in culture; type: cell-based, Hepatitis E Virus
Text: (§3) For transfection, pSHEV-3 (cDNA clone of HEV genotype 3; accession no. AY575859.1) was linearised using Xba I (New England BioLabs). The helicase region of GT1 and GT3 share greater than 90% sequence homology Sub-genomic HEV carrying luciferase gene (accession number JQ679013) was linearised for replicon assay with MluI. The linearised DNA was subjected to in vitro transcription, as mentioned previously[26]^,[36], and the RNA was transfected in Huh7 cells using Lipofectamine 3000 (Invitrogen, Carlsbad, CA). Briefly, a day before transfection, approximately 0.8 × 10^6 cells were seeded in each well of a six-well plate, and for HEV replicon assay, ∼5–7 × 10[3] cells were seeded in each well of 96 plate. After 24 h, the media was removed, the cells were washed twice with Opti-MEM media (Gibco™, Grand Island, NY), and the transfection mixture was prepared as mentioned earlier[25]^,[26]. The cells were incubated with a transfection mixture for 6–8 h at 37 °C.
For IFA, the cells were grown on a 96-well plate and transfected using Lipofectamine, as mentioned above. […] The cells were incubated for 4–5 d, and subsequently, the media was removed, and the cells were carefully washed twice with 1X PBS. The cells were fixed with 4% paraformaldehyde (PFA) and incubated for 5–10 min at RT. After fixing, the cells were again washed with 1× PBS, and the permeabilisation was performed using PBS with 0.1% Triton-X and 0.1% BSA (Bovine Serum Albumin, HiMedia, Mumbai, India). The blocking was performed using 3% BSA for 1 h at RT. After blocking, the cells were incubated with anti-HEV-ORF2 (Dilution, 1:400) antibody against the HEV capsid protein for 1 h at RT. The cells were washed thrice with PBS-T (Tween-20, 0.05%, Sigma Aldrich). The Goat-Anti-Rabbit Alexa Fluor 488 (Thermo Fisher) was used as a secondary antibody, and the cells were incubated for 30 min in the dark. The cells were washed thrice with PBS-T and stained with DAPI (Invitrogen™). […]

p6 HEV-Luc Replicon = experiment: HEV replicon (p6 HEV-Luc) luciferase assay in Huh7 cells; type: cell-based; conditions: Hepatitis E virus, Huh-7, 72 h, read-out: IC50 HEV replicon luciferase activity
Text: as §3
Following transfection, the cells were incubated with inhibitors for 72 h at 37 °C in a CO2 incubator. […] The cells were then lysed according to the manufacturer’s protocol, and the luminescence was recorded on Tecan Spark® (Tecan Trading AG, Switzerland) multimode plate reader. In replicon, the luminescence was normalised w.r.t to uninfected (0%) and untreated cells (100%).

Huh7 cells = test system: Huh7 cells
Protocol: To study the cell viability, Huh7 cells were grown in Dulbecco’s Modified Eagle Medium (DMEM, Gibco™, Life Technologies, Grand Island, NY), supplemented with 10% Foetal Bovine Serum (FBS, Gibco™, Qualified, Brazil origin). Further, Huh7 cells were seeded in a 96-well plate (∼0.7 × 10^4 cells/well) and incubated at 37 °C in a humidified 5% CO2 incubator. […] After 4 d, the MTT (3-dimethylthiazol-2-yl-diphenyl tetrazolium bromide) assay was performed per the manufacturer’s protocol (Himedia Laboratories, Thane, India). Cell viability percentage was calculated by comparing treated cells with untreated cells.

[4] = read-out: IC50 (µM) NTPase activity

| Structure (SMILES) | IC50 (HEV helicase [1]) [µM] | IC50 (HEV helicase [2]; [4]) [µM] | further results |
| --- | --- | --- | --- |
| O=C(O)c1cc(=O)c2c(OCC(O)COc3cccc4oc(C(=O)O)cc(=O)c34)cccc2o1 [Disodium cromoglycate, disodium cromoglycate] | 39.8 | 14.8 | – |
| CN(Cc1cnc2nc(N)nc(N)c2n1)c1ccc(C(=O)N[C@@H](CCC(=O)O)C(=O)O)cc1 [Methotrexate] | – | – | HEV replication inhibition (IFA) ([3]; 50 nM Mtx): ~81%; fluorescence level (ORF2, IFA) ([3]; 100 nM methotrexate, untreated 100%): ~6%; inhibition at 0.1 µM ([3]; Hepatitis E virus, Huh-7, read-out: inhibition of HEV replication (IFA)): ~94%; IC50 (p6 HEV-Luc Replicon): 0.0731 ± 0.0127 µM; Cytotoxicity (MTT assay) (Huh7 cells): < 100 nM |
| COc1cccc2c1C(=O)c1c(O)c3c(c(O)c1C2=O)C[C@@](O)(C(C)=O)C[C@@H]3O[C@H]1C[C@H](N)[C@H](O)[C@H](C)O1 [Daunorubicin HCL, daunorubicin HCL] | 8.25 | 7.66 | – |
| C[C@]12C=CC(=O)C=C1CC[C@@H]1[C@@H]2[C@@H](O)C[C@@]2(C)[C@H]1CC[C@]2(O)C(=O)CO [Prednisolone] | 25.8 | 4.2 | – |
| Nc1nc2c(ncn2C2OC(COP(=O)(O)OP(=O)(O)OP(=O)(O)O)C(O)C2O)c(=O)[nH]1 (centres unmarked) [GTP] | – | – | Km (HEV helicase [2]; read-out: Km (substrate, NTPase activity), GTP 0 to […], Michaelis-Menten fit): 350 µM |
| CN1c2c(nc(N)[nH]c2=O)NC[C@@H]1CNc1ccc(C(=O)N[C@@H](CCC(=O)O)C(=O)O)cc1 [Levomefolic acid, 5-methyltetrahydrofolate (levomefolic acid)] | 13.9 | – | IC50 (HEV helicase [2]): 3.65 µM |
